Laboratory results reported in patent publication US10562891B2, “Quinazolinones as PARP14 inhibitors” (Ribon Therapeutics Inc., priority 2017, dated 2020).
Where a name gives a salt, the structure may show the parent alone.

Biological target: catalytic domain of human PARP14 (Homo sapiens (Human), UniProt Q460N5)
Experiment: Enzymatic assay for inhibition of PARP14 (DELFIA, auto-modification with biotin-NAD)
Type: biochemical
Details: auto-modification of PARP14 by biotin-NAD, 50 nM PARP14, 3 μM biotin-NAD
Outline: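 DELFIA auto-modification read-out: europium-streptavidin bound to biotin-NAD incorporated onto nickel-captured His-TEV PARP14 catalytic domain. Compound preincubated 30 min, then 50 nM enzyme with 3 μM biotin-NAD reacted 3 h, all at 25 °C, pH 8, then NAD quench. Percent inhibition normalized to rucaparib/DMSO wells, fitted (4- or 3-parameter) for IC50.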

Chain of catalytic domain of human PARP14 (Q460N5 1611-1801): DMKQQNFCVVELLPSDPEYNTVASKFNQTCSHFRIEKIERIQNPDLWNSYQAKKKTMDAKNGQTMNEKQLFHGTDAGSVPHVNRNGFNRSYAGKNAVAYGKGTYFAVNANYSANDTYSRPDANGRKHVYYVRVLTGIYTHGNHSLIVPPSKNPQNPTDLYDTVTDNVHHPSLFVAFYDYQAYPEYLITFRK

Compound	IC50 [µM]
Cc1cc(NC2CCCC2)cc2nc(CSC3CCNCC3)[nH]c(=O)c12 [Example 257, 7-(Cyclopentylamino)-5-methyl-2-((piperidin-4-ylthio)methyl)quinazolin-4(3H)-one hydrochloride]	< 1
CC(=O)N1CCC(SCc2nc3cc(N[C@@H]4CCCN(S(C)(=O)=O)C4)ccc3c(=O)[nH]2)CC1 [Example 268, (R)-2-(((1-acetylpiperidin-4-yl)thio)methyl)-7-((1-(methylsulfonyl)piperidin-3-yl)amino)quinazolin-4(3H)-one]	< 1
CS(=O)(=O)N1CCC[C@@H](Nc2cc(F)c3c(=O)[nH]c(CS[C@H]4CC[C@H](O)CC4)nc3c2)C1 [Example 269, 5-Fluoro-2-(((trans-4-hydroxycyclohexyl)thio)methyl)-7-(((R)-1-(methylsulfonyl)piperidin-3-yl)amino)quinazolin-4(3H)-one]	< 1
O=c1[nH]c(CSC2CCS(=O)(=O)CC2)nc2cc(NC3CCCC3)cc(F)c12 [Example 270, 7-(Cyclopentylamino)-2-(((1,1-dioxidotetrahydro-2H-thiopyran-4-yl)thio)methyl)-5-fluoroquinazolin-4(3H)-one]	< 1
O=c1[nH]c(CS[C@H]2CC[C@H](O)CC2)nc2cc(NCC3CC3)cc(F)c12 [Example 271, 7-((Cyclopropylmethyl)amino)-5-fluoro-2-(((trans-4-hydroxycyclohexyl)thio)methyl)quinazolin-4(3H)-one]	< 1
O=c1[nH]c(CSC2CCNCC2)nc2cc(NCC3CCOCC3)cc(F)c12 [Example 272, 5-Fluoro-2-((piperidin-4-ylthio)methyl)-7-(((tetrahydro-2H-pyran-4-yl)methyl)amino)quinazolin-4(3H)-one]	1 to 10
O=c1[nH]c(CSC2CCN(C3CS(=O)(=O)C3)CC2)nc2cc(NC3CCCC3)cc(F)c12 [Example 273, 7-(Cyclopentylamino)-2-(((1-(1,1-dioxidothietan-3-yl)piperidin-4-yl)thio)methyl)-5-fluoroquinazolin-4(3H)-one]	< 1
O=c1[nH]c(CSC2CCN(C3COC3)CC2)nc2cc(NCC3CC3)cc(F)c12 [Example 274, 7-((Cyclopropylmethyl)amino)-5-fluoro-2-(((1-(oxetan-3-yl)piperidin-4-yl)thio)methyl)quinazolin-4(3H)-one]	< 1
O=c1[nH]c(CSC2CCNCC2)nc2cc(OCC3CC3)ccc12 [Example 275, 7-(Cyclopropylmethoxy)-2-((piperidin-4-ylthio)methyl)quinazolin-4(3H)-one]	< 1
CS(=O)(=O)CCN1CCC(SCc2nc3cc(NC4CCCC4)cc(F)c3c(=O)[nH]2)CC1 [Example 276, 7-(Cyclopentylamino)-5-fluoro-2-(((1-(2-(methylsulfonyl)ethyl)piperidin-4-yl)thio)methyl)quinazolin-4(3H)-one]	< 1
O=c1[nH]c(CSC2CCNCC2)nc2cc(NCCN3CCOCC3)cc(F)c12 [Example 277, 5-Fluoro-7-((2-morpholinoethyl)amino)-2-((piperidin-4-ylthio)methyl)quinazolin-4(3H)-one dihydrochloride]	< 1
O=c1[nH]c(CSC2CCNCC2)nc2cc(OCC3CC3)cc(F)c12 [Example 278, 7-(Cyclopropylmethoxy)-5-fluoro-2-((piperidin-4-ylthio)methyl)quinazolin-4(3H)-one]	< 1
CC(C)(O)C(=O)N1CCC(SCc2nc3cc(NC4CCCC4)cc(F)c3c(=O)[nH]2)CC1 [Example 279, 7-(Cyclopentylamino)-5-fluoro-2-(((1-(2-hydroxy-2-methylpropanoyl)piperidin-4-yl)thio)methyl)quinazolin-4(3H)-one]	< 1
O=c1[nH]c(CSC2CCNCC2)nc2cc(OCC3CCC3)cc(F)c12 [Example 280, 7-(Cyclobutylmethoxy)-5-fluoro-2-((piperidin-4-ylthio)methyl)quinazolin-4(3H)-one 2,2,2-trifluoroacetate]	< 1
O=c1[nH]c(CSC2CCN(Cc3ccccn3)CC2)nc2cc(NC3CCCC3)cc(F)c12 [Example 281, 7-(Cyclopentylamino)-5-fluoro-2-(((1-(pyridin-2-ylmethyl)piperidin-4-yl)thio)methyl)quinazolin-4(3H)-one]	< 1
O=c1[nH]c(CSC2CCNCC2)nc2cc(OCC3CCCC3)cc(F)c12 [Example 282, 7-(Cyclopentylmethoxy)-5-fluoro-2-((piperidin-4-ylthio)methyl)quinazolin-4(3H)-one 2,2,2-trifluoroacetate]	< 1
CNC(=O)CN1CCC(SCc2nc3cc(NC4CCCC4)cc(F)c3c(=O)[nH]2)CC1 [Example 283, 2-(4-(((7-(Cyclopentylamino)-5-fluoro-4-oxo-3,4-dihydroquinazolin-2-yl)methyl)thio)piperidin-1-yl)-N-methylacetamide hydrochloride]	< 1
Cc1cc(NCC2CC2(F)F)cc2nc(CSC3CCNCC3)[nH]c(=O)c12 (centres unmarked) [Example 284, 7-(((2,2-Difluorocyclopropyl)methyl)amino)-5-methyl-2-((piperidin-4-ylthio)methyl)quinazolin-4(3H)-one hydrochloride]	< 1

Now from value to compound:

IC50 [µM]	Compound
< 1	O=c1[nH]c(CS[C@H]2CC[C@H](O)CC2)nc2cc(NC3CCCCC3)cc(F)c12 [Example 249, 7-(Cyclohexylamino)-5-fluoro-2-((((1r,4r)-4-hydroxycyclohexyl)thio)methyl)quinazolin-4(3H)-one]
< 1	CS(=O)(=O)N1CCC[C@@H](Nc2cc(F)c3c(=O)[nH]c(CSC4CCOCC4)nc3c2)C1 [Example 250, (R)-5-fluoro-7-((1-(methylsulfonyl)piperidin-3-yl)amino)-2-(((tetrahydro-2H-pyran-4-yl)thio)methyl)quinazolin-4(3H)-one]
< 1	O=c1[nH]c(CSC2CCOCC2)nc2cc(NC3CCC3)cc(F)c12 [Example 251, 7-(Cyclobutylamino)-5-fluoro-2-(((tetrahydro-2H-pyran-4-yl)thio)methyl)quinazolin-4(3H)-one]
< 1	O=c1[nH]c(CSC2CCOCC2)nc2cc(NCCC3CCCC3)ccc12 [Example 252, 7-((2-Cyclopentylethyl)amino)-2-(((tetrahydro-2H-pyran-4-yl)thio)methyl)quinazolin-4(3H)-one]
< 1	O=c1[nH]c(CSC2CCOCC2)nc2cc(NC3CCCC3)cc(Cl)c12 [Example 253, 5-Chloro-7-(cyclopentylamino)-2-(((tetrahydro-2H-pyran-4-yl)thio)methyl)quinazolin-4(3H)-one]
< 1	O=c1[nH]c(CSC2CCN(CC(F)(F)F)CC2)nc2cc(NC3CCCC3)ccc12 [Example 254, 7-(Cyclopentylamino)-2-(((1-(2,2,2-trifluoroethyl)piperidin-4-yl)thio)methyl)quinazolin-4(3H)-one]
< 1	O=c1[nH]c(CSC2CCN(C3COC3)CC2)nc2cc(NC3CCCC3)cc(F)c12 [Example 255, 7-(Cyclopentylamino)-5-fluoro-2-(((1-(oxetan-3-yl)piperidin-4-yl)thio)methyl)quinazolin-4(3H)-one]
< 1	O=c1[nH]c(CSC2CCOCC2)nc2cc(NCCC3CCOCC3)ccc12 [Example 256, 7-((2-(Tetrahydro-2H-pyran-4-yl)ethyl)amino)-2-(((tetrahydro-2H-pyran-4-yl)thio)methyl)quinazolin-4(3H)-one]
< 1	O=c1[nH]c(CSC2CCN(CC(F)F)CC2)nc2cc(NC3CCCC3)ccc12 [Example 258, 7-(Cyclopentylamino)-2-(((1-(2,2-difluoroethyl)piperidin-4-yl)thio)methyl)quinazolin-4(3H)-one]
< 1	O=c1[nH]c(CSC2CCN(CCC(F)(F)F)CC2)nc2cc(NC3CCCC3)ccc12 [Example 259, 7-(Cyclopentylamino)-2-(((1-(3,3,3-trifluoropropyl)piperidin-4-yl)thio)methyl)quinazolin-4(3H)-one]
< 1	O=c1[nH]c(CSC2CCNCC2)nc2cc(NCC3CCC3)cc(F)c12 [Example 261, 7-((Cyclobutylmethyl)amino)-5-fluoro-2-((piperidin-4-ylthio)methyl)quinazolin-4(3H)-one]
< 1	O=c1[nH]c(CSC2CCNCC2)nc2cc(NCC3CC3(F)F)cc(F)c12 (centres unmarked) [Example 262, 7-(((2,2-Difluorocyclopropyl)methyl)amino)-5-fluoro-2-((piperidin-4-ylthio)methyl)quinazolin-4(3H)-one]
< 1	O=c1[nH]c(CSC2CCN(CC(F)(F)F)CC2)nc2cc(NC3CCCC3)cc(F)c12 [Example 263, 7-(Cyclopentylamino)-5-fluoro-2-(((1-(2,2,2-trifluoroethyl)piperidin-4-yl)thio)methyl)quinazolin-4(3H)-one]
< 1	CC(F)(F)CN1CCC(SCc2nc3cc(NC4CCCC4)ccc3c(=O)[nH]2)CC1 [Example 264, 7-(Cyclopentylamino)-2-(((1-(2,2-difluoropropyl)piperidin-4-yl)thio)methyl)quinazolin-4(3H)-one]
< 1	O=c1[nH]c(CSC2CCNCC2)nc2cc(NCC3CC3)cc(F)c12 [Example 265, 7-((Cyclopropylmethyl)amino)-5-fluoro-2-((piperidin-4-ylthio)methyl)quinazolin-4(3H)-one]
< 1	O=c1[nH]c(CSC2CCNCC2)nc2cc(NC3CCC(F)(F)C3)cc(F)c12 (centres unmarked) [Example 266, 7-((3,3-Difluorocyclopentyl)amino)-5-fluoro-2-((piperidin-4-ylthio)methyl)quinazolin-4(3H)-one]
< 1	CS(=O)(=O)N1CCC[C@@H](Nc2ccc3c(=O)[nH]c(CS[C@H]4CC[C@H](O)CC4)nc3c2)C1 [Example 267, 2-(((Trans-4-hydroxycyclohexyl)thio)methyl)-7-(((R)-1-(methylsulfonyl)piperidin-3-yl)amino)quinazolin-4(3H)-one]
